Source: patent US20250235533A1, “INJECTABLE PROLONGED-RELEASE HYDROGEL FORMULATIONS OF TOLL-LIKE RECEPTOR AGONISTS FOR INTRATUMORAL INJECTION TO INCREASE IMMUNOTHERAPY RESPONSE” (priority 2024, published 2025)
Each block holds one compound with its values, some of them ahead of it.

Key:
In vitro release studies = format: physicochemical
Description: Drug release kinetics of imiquimod from various […] formulations were studied by placing aliquots of drug-loaded hydrogel into 50 mL conical tubes at 100 rpm at 37° C., releasing drug into DPBS. 50 μL of […] were added to the bottom of 50 mL conical Falcon tubes or in a dialysis tubing (D-tube Dialyzer Maxi, MWCO 3.5 kDa) at room temperature and brought to gel state by incubating at 37° C. for 30 min while DPBS as receiving fluid was preheated at the same temperature. After […] solidified, 50 mL DPBS (pH 7.4), Lactated […]), or Acetate Buffer (pH 5, 0.03 m Acetic acid, and 0.07 m Sodium Acetate in DI water) were added slowly to the conical tubes. These containers were then incubated at 37° C. under shaking at 100 rpm. 400 μL samples were taken from the receiving fluid with a 1 mL syringe through 0.2 μm filters (PALL super membrane low protein binding non-pyrogenic) to avoid accidental removal of gel. Concentration of imiquimod in the samples was assessed eluting the samples on an Agilent 1100 high-performance liquid chromatography (HPLC) with UV detector at 242 nm over an Eclipse XD8-C18 column (150×4.6 mm, 3.5 μm pore size) with an acetonitrile/water gradient from 5/95 to 95/5 over 6 min at 1 mL mi-1 n. […] Concentrations were calculated from UV signals using a calibration curve of known concentration imiquimod standards in DMSO/Acetonitrile.

[1] = Solubility / encapsulation of immunoadjuvant in PLGA-PEG-PLGA micelles; format: physicochemical
Description: Typically, 1 g of PLGA-PEG-PLGA was dissolved in 4 ml 0.9% saline solution (Baxter, Deerfield, IL) to obtain a 25% weight/volume (w/v) concentration at 4° C. over 2 days and vortexed/stirred daily. Importantly, the normal saline cannot contain the preservative phenol, commonly found in preservative containing commercial saline solutions. After a homogeneous hydrogel solution was observed by stirring with a spatula, imiquimod was added at 24 mg to the batch, the dispersion was vortexed and allowed to dissolve at room temperature over 2 days. Some of the gels received Iopamidol as contrast agent at 100 mg mL^−1, which was left to disperse or dissolve over 1 day. The resulting Imigel or Imigel+Iopamidol was stored at room temperature, shielded from evaporation, and used within 1 week from full dissolution to prevent hydrolysis. (FIGS. 3A-3E).

CT-26 tumors = experiment: Dual tumor model survival study, CT-26; format: in vivo, balb/c mice; conditions: CT-26 model
Description: Per experimental arm 10-15 Balb c^−1 mice were injected with approximately 10^6 cells of CT-26 or EMT-6 cells, day 0 (FIG. 6) in bilateral flanks. Immunotherapy (anti-PD-1 (3.9 mg mL^−1), anti-CTLA-4 (2.2 mg mL^−1) co-immunotherapy was given intraperitoneally (Sigma-Aldrich) every 3 days from day 3-12. Mice with primary and contralateral tumors of at least 6 mm were chosen to be randomized to various treatment arms evaluating CPI with and without cryoablation, imiquimod drug-only injection, PLGA-PEG-PLGA only injection, or imigel (3:1) injection. The imigel, gel alone, or serial imiquimod suspensions were injected as 50 μL injections using a 26-gauge needle. For cryoablation, parameters included a 30 s freeze, followed by 2 min thaw, followed by a 30 s freeze with goal of approximately 50% tumoral freezing. When using cryoablation, the drug formulations were injected 5 min post final freeze, with a mild pause during injection to ensure no push back via the tract into the remaining viable tumor. Imiquimod alone was prepared as a suspension by 30 min of sonication at 1 mg mL^−1 in normal saline. Injections for imiquimod alone were done as a total 50 μL 1 mg mL^−1 injections once per day for six total doses. Specifically, Imigel delivered a total of 300 μg in one injection in two 25 μL injection depots within the tumor at the same injection session for only one session. […]

[2] = test system: CD8+ T cells in CT-26 tumors; experiment: Intratumoral flow cytometry, CT-26 model; format: in vivo, mice; conditions: compared to CPI only
Description: Additional groups of 4 mice were injected with CT-26 and treated as above. 6 days post local intervention, mice were euthanized, and ipsilateral and contralateral tumors excised. In all cases of this example, tumor samples were minced and then incubated in a collagenase solution (1 mg mL^−1 in RPMI—1640) for approximately 45 min at 37° C. Tumors were processed into a single cell suspension using a 70 μm cell strainer.
For flow cytometry, using the cells harvested as above, cell viability was assessed by trypan blue staining, and 1×10^6 viable cells were stained for flow cytometry analysis. Cells were washed with PBS and stained with a 1:1000 solution of ZOMBIE Aqua (from […], Biolegend) and incubated on ice for 15 min. […] Cells were resuspended in cell staining buffer, and the samples were analyzed on an Aurora (Cytek Biotechnology). […] Gating for individual markers was determined by fluorescent minus one (FMO) control panels and unstained controls. […]

[3] = cited from earlier work

Compound: O=S(=O)([O-])[O-].[Ba+2] [barium sulfate]
effect on release profile of imiquimod from injectable composition (In vitro release studies; phosphate buffer solution at 37 degrees C): does not significantly change the release profile of imiquimod

Compound: CC(C)Cn1cnc2c(N)nc3ccccc3c21 [imiquimod]
solubility at 2 days ([1]; PLGA1.5k-PEG1.5k-PLGA1.5k micelles (hydrogel solution), aqueous with cosolvent or surfactant or cyclodextrin, thermodynamic from solid, in PLGA1.5k-PEG1.5k-PLGA1.5k micelles, read-out: concentration uniformly solubilized): ~6000 µg/mL
increase of aqueous solubility ([1]; encapsulated in micellar structure of PLGA-PEG-PLGA): approximately 2000 fold
90-day survival (CT-26 tumors; serial imiquimod (6 daily injections) with CPI and cryoablation): 46.7%
90-day survival (CT-26 tumors; serial imiquimod (6 daily injections) with CPI, no cryoablation): 57%
percentage of activated CD8+ T cells (dual CD44+PD1+ among CD8+ T-cells) [2]: significant increase
solubility in saline [3]: around 0.002 mg mL^−1

encapsulation ([1]; motolimod in PLGA-PEG-PLGA injectable composition): around 6 mg/mL
release profile of motolimod (In vitro release studies; into PBS, PLGA-PEG-PLGA 1600-1500-1600 and 1500-1500-1500): relatively extended
Compound: CCCN(CCC)C(=O)C1=Cc2ccc(-c3ccc(C(=O)N4CCCC4)cc3)cc2N=C(N)C1 [motolimod]
